{
  "source": "patent US20200009266A1",
  "about": "“IN VIVO GENE THERAPY FOR IMMUNE DEFICIENCIES” (priority 2017, published 2020)",
  "origin": "cited, not measured here",
  "key": {"circulating CD34+ cells": {"system": "circulating CD34+ cells", "conditions": "AMD3100 alone, adult dogs"}, "[1]": {"system": "peripheral blood lymphocytes", "conditions": "rhesus macaques"}},
  "data": [
    {"compound": "c1cc(CN2CCCNCCNCCCNCC2)ccc1CN1CCCNCCNCCCNCC1", "note": "[AMD3100]", "values": [
      {"measurement": "time of peak mobilization post treatment", "setting": "circulating CD34+ cells", "value": "8 to 10", "unit": "h"},
      {"measurement": "tolerability of treatment", "setting": "circulating CD34+ cells", "value": "well tolerated"},
      {"measurement": "lymphocyte numbers in peripheral blood", "setting": "[1]", "value": "increased numbers of B and T lymphocytes"}
    ]}
  ]
}
